34 molecules from patent publication US20110224079A1, “SPIROHETEROCYCLIC N-OXYAMIDES AS PESTICIDES” (SYNGENTA CROP PROTECTION LLC, priority 2008, published 2011) can be followed below.

Experiment [1] deals with Myzus persicae (green peach aphid). The experiment is described as follows: Example B2: activity against Myzus persicae, pea seedling roots in test solution (systemic/feeding, curative). The note with it: 144 h, read-out: activity (mortality).
Experiment [2] relates to Tetranychus urticae (two-spotted spider mite). The experiment is described as follows: Example B4: activity against Tetranychus urticae, sprayed bean leaf discs (feeding/residual contact, preventive). As to conditions: foliar, 192 h, read-out: activity (egg, larval and adult mortality).
Experiment [3] has as its system Myzus persicae (green peach aphid). The experiment is described as follows: Example B1: activity against Myzus persicae, sprayed sunflower leaf discs (feeding/residual contact, preventive). The note with it: foliar, 144 h, read-out: activity (mortality).
For experiment [4] the test system is unchanged. Briefly: Example B17: activity against Myzus persicae on sprayed pepper plants (feeding/residual contact). It is filed as in vivo. As to conditions: 144 h, infested pepper plants sprayed, 6 days.

As usually defined, the mortality is the percentage killed.

Turning to `CCOC(=O)OC1=C(c2c(C)cc(C)cc2C)C(=O)N(OC(=O)C2CC2)C12CCN(OC)CC2` [P1.16], the mortality at 400 ppm in experiment [1] and in experiment [2] was greater than 80% in each case.

For `CCOC(=O)OC1=C(c2cc(Br)ccc2C)C(=O)N(OCOC)C12CCN(OC)CC2` [P1.21], the mortality at 400 ppm in experiment [2] was greater than 80%.

As for `CCOC(=O)OC1=C(c2cc(-c3ccc(Cl)cc3)ccc2C)C(=O)N(OCOC)C12CCN(OC)CC2` [P1.22], the mortality at 400 ppm in experiment [3] and in experiment [2] was greater than 80% in each case.

On to `C#CCON1C(=O)C(c2c(C)cc(C)cc2C)=C(OC(=O)OCC)C12CCN(OC)CC2` [P1.29], for which the mortality at 400 ppm in experiment [1], in experiment [3] and in experiment [2] was greater than 80% in each case.

Take `CCOC(=O)OC1=C(c2c(Cl)ccc(C)c2F)C(=O)N(OC2CCCO2)C12CCN(OC)CC2` (centres unmarked) [P1.43]: the mortality at 400 ppm in experiment [1] and in experiment [2] was greater than 80% each time.

For `CCOC(=O)OC1=C(c2c(C)cc(C)cc2C)C(=O)N(OCCCOC)C12CCN(OC)CC2` [P1.44], in experiment [4], the mortality at 200 ppm was no less than 80%. Moreover, the mortality at 400 ppm in experiment [1], in experiment [3] and in experiment [2] was greater than 80% each time.

For `CCOC(=O)OC1=C(c2cc(C)c(C)cc2C)C(=O)N(OC2CCCO2)C12CCN(OC)CC2` (centres unmarked) [P1.54], the mortality at 400 ppm in experiment [3] and in experiment [2] was greater than 80% throughout.

For the molecule `CCOC(=O)OC1=C(c2cc(C)c(C)cc2C)C(=O)N(OCOC)C12CCN(OC)CC2` [P1.56], the mortality at 200 ppm in experiment [4] was no less than 80%. Moreover, the mortality at 400 ppm in experiment [1], in experiment [3] and in experiment [2] was greater than 80% throughout.

The molecule `CCOC(=O)OC1=C(c2c(C)cc(C)cc2Br)C(=O)N(OC2CCCO2)C12CCN(OC)CC2` (centres unmarked) [P1.69] showed a mortality at 200 ppm in experiment [4] of no less than 80%. Besides, the mortality at 400 ppm in experiment [1], in experiment [3] and in experiment [2] was greater than 80% each time.

In experiment [4], `CCOC(=O)OC1=C(c2c(C)cc(C)cc2C)C(=O)N(OC2CCOCC2)C12CCN(OC)CC2` [P1.76] yielded a mortality at 200 ppm of no less than 80%. The mortality at 400 ppm in experiment [1] and in experiment [2] was greater than 80% in each case.

As to `CCOC(=O)OC1=C(c2c(C)cc(C)cc2C)C(=O)N(OCc2ccoc2)C12CCN(OC)CC2` [P1.77], the mortality at 200 ppm in experiment [4] was no less than 80%. Moreover, the mortality at 400 ppm in experiment [1] and in experiment [2] was greater than 80% each time.

Turning to `CCOC(=O)OC1=C(c2c(C)cc(C)cc2C)C(=O)N(OCC2CCSCC2)C12CCN(OC)CC2` [P1.80], the mortality at 400 ppm in experiment [2] is greater than 80%.

In experiment [4], `CCOC(=O)OC1=C(c2c(C)cc(C)cc2C)C(=O)N(OCC2CCCC2)C12CCN(OC)CC2` [P1.83] returned a mortality at 200 ppm of no less than 80%. Moreover, the mortality at 400 ppm in experiment [1] and in experiment [2] was greater than 80% each time.

Regarding `CCOC(=O)OC1=C(c2c(C)cc(C)cc2C)C(=O)N(OCC2(CC)COC2)C12CCN(OC)CC2` [P1.84], the mortality at 400 ppm in experiment [1] and in experiment [2] was greater than 80% each time.

Consider `CCOC(=O)OC1=C(c2cc(Br)c(C)cc2C)C(=O)N(OCOC)C12CCN(OC)CC2` [P1.87], for which the mortality at 400 ppm in experiment [2] was greater than 80%.

For the molecule `CCOC(=O)OC1=C(c2c(C)cc(C)cc2C)C(=O)N(OC2CCN(OC)CC2)C12CCN(OC)CC2` [P1.104], the mortality at 400 ppm in experiment [1] and in experiment [2] was greater than 80% throughout.

Turning to `CCOC(=O)OC1=C(c2c(C)cc(C)cc2C)C(=O)N(OCC2CCCCC2)C12CCN(OC)CC2` [P1.105], the mortality at 400 ppm in experiment [2] was greater than 80%.

The molecule `CCOC(=O)OC1=C(c2c(C)cc(C)cc2C)C(=O)N(OCC2CCC2)C12CCN(OC)CC2` [P1.106] registered a mortality at 200 ppm in experiment [4] of no less than 80%. For the same molecule, the mortality at 400 ppm in experiment [1], in experiment [3] and in experiment [2] was greater than 80% throughout.

In the case of `CCOC(=O)OC1=C(c2c(C)cc(C)cc2C)C(=O)N(OCC2CCCOC2)C12CCN(OC)CC2` (centres unmarked) [P1.109], the mortality at 400 ppm in experiment [1], in experiment [3] and in experiment [2] was greater than 80% each time.

As to `COCON1C(=O)C(c2cc(-c3ccc(Cl)cc3)ccc2C)=C(O)C12CCN(OC)CC2` [P2.17], the mortality at 400 ppm in experiment [3] and in experiment [2] was greater than 80% throughout.

On to `CON1CCC2(CC1)C(O)=C(c1c(C)cc(C)cc1C)C(=O)N2OC1CCCCC1` [P2.26, 1-Cyclohexyloxy-4-hydroxy-8-methoxy-3-(2,4,6-trimethyl-phenyl)-1,8-diaza-spiro[4.5]dec-3-en-2-one], for which the mortality at 400 ppm in experiment [2] is greater than 80%.

On to `CON1CCC2(CC1)C(O)=C(c1cc(C)c(Cl)cc1C)C(=O)N2OC` [P2.31], for which the mortality at 400 ppm in experiment [3] and in experiment [2] was greater than 80% in each case.

For `COCCON1C(=O)C(c2c(C)cc(C)cc2Cl)=C(O)C12CCN(OC)CC2` [P2.35], the mortality at 400 ppm in experiment [1], in experiment [3] and in experiment [2] was greater than 80% in each case.

In the case of `CON1CCC2(CC1)C(O)=C(c1c(Cl)ccc(C)c1F)C(=O)N2OC1CCCO1` (centres unmarked) [P2.45], the mortality at 400 ppm in experiment [2] is greater than 80%.

For `CON1CCC2(CC1)C(O)=C(c1c(Cl)ccc(C)c1F)C(=O)N2OC` [P2.48], the mortality at 400 ppm in experiment [1] and in experiment [2] was greater than 80% throughout.

On to `CON1CCC2(CC1)C(O)=C(c1c(F)ccc(C)c1Cl)C(=O)N2OC` [P2.58], for which the mortality at 400 ppm in experiment [1] and in experiment [2] was greater than 80% throughout.

On to `CON1CCC2(CC1)C(O)=C(c1c(C)cc(C)cc1C)C(=O)N2OC1CCCCO1` (centres unmarked) [P2.65], for which the mortality at 200 ppm in experiment [4] is no less than 80%. For the same molecule, the mortality at 400 ppm in experiment [1], in experiment [3] and in experiment [2] was greater than 80% each time.

In experiment [4], `CON1CCC2(CC1)C(O)=C(c1c(C)cc(C)cc1Br)C(=O)N2OC1CCCO1` (centres unmarked) [P2.69] displayed a mortality at 200 ppm of no less than 80%. For the same molecule, the mortality at 400 ppm in experiment [1], in experiment [3] and in experiment [2] was greater than 80% each time.

Regarding `CON1CCC2(CC1)C(O)=C(c1cc(Br)c(C)cc1C)C(=O)N2OC1CCCO1` (centres unmarked) [P2.76], the mortality at 400 ppm in experiment [2] is greater than 80%.

For `CON1CCC2(CC1)C(O)=C(c1c(C)cc(Br)cc1C)C(=O)N2OC` [P2.79], the mortality at 200 ppm in experiment [4] is no less than 80%. Also, the mortality at 400 ppm in experiment [1] and in experiment [2] was greater than 80% each time.

Consider `CON1CCC2(CC1)C(O)=C(c1c(C)cc(C)cc1C)C(=O)N2OCC1CCCC1` [P2.85], for which the mortality at 200 ppm in experiment [4] was no less than 80%. Also, the mortality at 400 ppm in experiment [1], in experiment [3] and in experiment [2] was greater than 80% each time.

Molecule `CCC1(CON2C(=O)C(c3c(C)cc(C)cc3C)=C(O)C23CCN(OC)CC3)COC1` [P2.86] came in with a mortality at 200 ppm in experiment [4] of no less than 80%. Further, the mortality at 400 ppm in experiment [3] and in experiment [2] was greater than 80% throughout.

For the molecule `CON1CCC2(CC1)C(O)=C(c1c(C)cc(C)cc1Cl)C(=O)N2OC1CCCO1` (centres unmarked) [P2.94], in experiment [4], the mortality at 200 ppm is no less than 80%. The mortality at 400 ppm in experiment [1], in experiment [3] and in experiment [2] was greater than 80% throughout.

As for `CON1CCC2(CC1)C(O)=C(c1c(C)cc(C)cc1C)C(=O)N2OCC1CCCOC1` (centres unmarked) [P2.100], the mortality at 400 ppm in experiment [1], in experiment [3] and in experiment [2] was greater than 80% throughout.
